From patent US20060069132A1, “Azolecarboxamide herbicides” (priority 2004, published 2006)
Read-outs that look alike come from different tables or passages of the source.

Key:
barnyardgrass [1] = assay: Test A pre-/postemergence herbicide test; type: in vivo, Echinochloa crus-galli; conditions: for pest or weed control at 500 g/ha / pest or weed control at 2000 g/ha: Echinochloa crus-galli, 240 h
Procedure, shortened: (§1)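 Visual injury scores on a 0–100 scale (100 = complete control) taken about ten days post-treatment in greenhouse against untreated controls; dash means no result. Treatments: preemergence soil spray and postemergence spray to runoff on one- to two-leaf plants 2 to 10 cm tall, surfactant-containing formulation.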

morningglory = assay: Test A pre-/postemergence herbicide test; type: in vivo, Ipomoea spp.; conditions: for pest or weed control at 500 g/ha / pest or weed control at 2000 g/ha: Ipomoea, 240 h
Procedure, shortened: as §1

barnyardgrass [2] = assay: Test B pre-/postemergence herbicide test; type: in vivo, Echinochloa crus-galli; conditions: for pest or weed control at 125 g/ha / pest or weed control at 500 g/ha: Echinochloa crus-galli
Procedure, shortened: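 Species tested were Echinochloa crus-galli, Ipomoea coccinea, Xanthium strumarium and Oryza sativa, treated both before emergence and at the 1- to 4-leaf stage; rice and barnyardgrass were also tested under flooding at 2 leaves. Greenhouse incubation lasted 13–15 days before visual 0–100 scoring.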

large crabgrass = assay: Test B pre-/postemergence herbicide test; type: in vivo, Digitaria sanguinalis; conditions: for pest or weed control at 125 g/ha / pest or weed control at 500 g/ha: Digitaria sanguinalis
Procedure, shortened: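 Response was scored visually 13 to 15 days after treatment against untreated greenhouse controls, 0 meaning no effect and 100 complete control. Formulations (solvent mixture plus surfactant) went onto soil after planting, onto foliage of 1- to 4-leaf plants, and onto 2-leaf plants in a flooded paddy set including rice and barnyardgrass.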

woolly cupgrass = assay: Test C pre-/postemergence herbicide test; type: in vivo, Eriochloa villosa
Procedure, shortened: (§2)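 Visual ratings on a 0–100 scale (100 = complete control) made versus untreated controls after 12 to 14 greenhouse days. Test chemicals, formulated in surfactant-containing non-phytotoxic solvent, applied preemergence to planted seeds or postemergence to 1- to 4-leaf plants (2 to 18 cm).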

johnsongrass = assay: Test C pre-/postemergence herbicide test; type: in vivo, Sorghum halepense
Procedure, shortened: as §2

lambsquarters = assay: Test C pre-/postemergence herbicide test; type: in vivo, Chenopodium album
Procedure, shortened: as §2

[3] = Postemergence, 500 g ai/ha, 0 to 100 scale, 0 no effect, 100 complete control
[4] = Postemergence, 2000 g ai/ha, 0 to 100 scale, 0 no effect, 100 complete control
[5] = Preemergence, 2000 g ai/ha, visual rating, 0 to 100 scale (0 no effect, 100 complete control)
[6] = preemergence, 500 g ai/ha, visual injury, 0 to 100 scale (0 no effect, 100 complete control)
[7] = 125 g ai/ha, 0 is no effect, 100 is complete control, preemergence
[8] = 125 g ai/ha, visual rating, scale 0 (no effect) to 100 (complete control), postemergence
[9] = 500 g ai/ha, visual rating, 0 = no effect, 100 = complete control, preemergence
[10] = postemergence, 500 g ai/ha, scale 0 to 100, 0 is no effect, 100 is complete control
[11] = Postemergence, 250 g ai/ha, scale 0 to 100, 0 no effect, 100 complete control
[12] = Postemergence, 500 g ai/ha, scale 0 to 100, 0 no effect, 100 complete control
[13] = postemergence, 125 g ai/ha, scale 0 to 100
[14] = postemergence, 62 g ai/ha, scale 0 to 100
[15] = Preemergence, 500 g ai/ha, visual rating, 0 to 100 scale (0 no effect, 100 complete control)
[16] = 500 g ai/ha, visual rating 0-100, 0 no effect, 100 complete control, preemergence
[17] = postemergence, 125 g ai/ha, visual rating, scale 0 (no effect) to 100 (complete control)
[18] = postemergence, 500 g ai/ha, visual rating, scale 0 (no effect) to 100 (complete control)
[19] = preemergence, 125 g ai/ha, 0 to 100 scale, 0 is no effect, 100 is complete control
[20] = 125 g ai/ha, scale 0 (no effect) to 100 (complete control), visual, 12 to 14 days, preemergence

Structure (SMILES): CCn1nc(C(C)(C)C)cc1C(=O)Nc1cc(OC(F)(F)F)ccc1F [Compound 338]
- Barnyardgrass plant response rating (barnyardgrass [1]; [3]): 20
- Plant response rating, Barnyardgrass (barnyardgrass [1]; [4]): 35
- Barnyardgrass plant response rating (barnyardgrass [1]; [5]): 95
- Barnyardgrass plant response rating (barnyardgrass [1]; [6]): 60
- Morningglory plant response rating (morningglory; [3]): 25
- Plant response rating, Morningglory (morningglory; [4]): 70
- Morningglory plant response rating (morningglory; [5]): 40
- Morningglory plant response rating (morningglory; [6]): 10
- Plant response rating (0 to 100 scale), Barnyardgrass (barnyardgrass [2]; [7]): 20
- Barnyardgrass plant response rating (barnyardgrass [2]; [8]): 20
- Plant response rating, Barnyardgrass (barnyardgrass [2]; [9]): 80
- Barnyardgrass plant response rating (barnyardgrass [2]; [10]): 40
- Plant response rating (0 to 100 scale), Crabgrass, Large (large crabgrass; [7]): 80
- Crabgrass, Large plant response rating (large crabgrass; [8]): 20
- Plant response rating, Crabgrass, Large (large crabgrass; [9]): 100
- Crabgrass, Large plant response rating (large crabgrass; [10]): 60
- Plant response rating, Cupgrass, Woolly (woolly cupgrass; [11]): 0
- Plant response rating, Cupgrass, Woolly (woolly cupgrass; [12]): 0
- Plant response rating, Cupgrass, Woolly (woolly cupgrass; [13]): 0
- Plant response rating, Cupgrass, Woolly (woolly cupgrass; [14]): 0
- Plant response rating, Johnsongrass (johnsongrass; [11]): 0
- Plant response rating, Johnsongrass (johnsongrass; [12]): 0
- Plant response rating, Johnsongrass (johnsongrass; [13]): 0
- Plant response rating, Johnsongrass (johnsongrass; [14]): 0
- Plant response rating, Lambsquarters (lambsquarters; [11]): 75
- Plant response rating, Lambsquarters (lambsquarters; [12]): 75
- Plant response rating, Lambsquarters (lambsquarters; [13]): 5
- Plant response rating, Lambsquarters (lambsquarters; [14]): 0

Structure (SMILES): CC(=O)c1cccc(NC(=O)c2cc(C(C)(C)C)nn2CCF)c1 [Compound 128]
- Barnyardgrass plant response rating (barnyardgrass [1]; [3]): 70
- Plant response rating, Barnyardgrass (barnyardgrass [1]; [4]): 80
- Barnyardgrass plant response rating (barnyardgrass [1]; [15]): 55
- Barnyardgrass plant response rating (barnyardgrass [1]; [5]): 85
- Morningglory plant response rating (morningglory; [3]): 10
- Plant response rating, Morningglory (morningglory; [4]): 15
- Morningglory plant response rating (morningglory; [15]): 45
- Morningglory plant response rating (morningglory; [5]): 85
- Plant response rating, Barnyardgrass (barnyardgrass [2]; [16]): 90
- Barnyardgrass plant response rating (barnyardgrass [2]; [17]): 20
- Barnyardgrass plant response rating (barnyardgrass [2]; [18]): 30
- Plant response rating, Barnyardgrass (barnyardgrass [2]; [19]): 80
- Plant response rating, Crabgrass, Large (large crabgrass; [16]): 100
- Crabgrass, Large plant response rating (large crabgrass; [17]): 20
- Crabgrass, Large plant response rating (large crabgrass; [18]): 20
- Plant response rating, Crabgrass, Large (large crabgrass; [19]): 90
- Plant response rating (0 = no effect, 100 = complete control), Cupgrass, Woolly (woolly cupgrass; 62 g ai/ha, preemergence): 10
- Plant response rating, Cupgrass, Woolly (woolly cupgrass; [20]): 20
- Plant response rating (0 = no effect, 100 = complete control), Johnsongrass (johnsongrass; 62 g ai/ha, preemergence): 90
- Plant response rating, Johnsongrass (johnsongrass; [20]): 90
- Plant response rating, Lambsquarters (lambsquarters; [20]): 30

Structure (SMILES): CCc1nn(C(C)(C)C)cc1C(=O)Nc1cc(C(=O)N(C)C)ccc1F [Compound 222, N-[5-[(dimethylamino)carbonyl]-2-fluorophenyl]-1-(1,1-dimethylethyl)-3-ethyl-1H-pyrazole-4-carboxamide]
- pest or weed control at 500 g/ha (barnyardgrass [1]; post-emergence, Postemergence, 500 g ai/ha, 0 to 100 scale, 0 no effect, 100 complete control, read-out: Barnyardgrass plant response rating): 75%
- pest or weed control at 2000 g/ha (barnyardgrass [1]; post-emergence, Postemergence, 2000 g ai/ha, 0 to 100 scale, 0 no effect, 100 complete control, read-out: Plant response rating, Barnyardgrass): 90%
- pest or weed control at 2000 g/ha (barnyardgrass [1]; pre-emergence, Preemergence, 2000 g ai/ha, visual rating, 0 to 100 scale (0 no effect, 100 complete control), read-out: Barnyardgrass plant response rating): 100%
- pest or weed control at 500 g/ha (barnyardgrass [1]; pre-emergence, preemergence, 500 g ai/ha, visual injury, 0 to 100 scale (0 no effect, 100 complete control), read-out: Barnyardgrass plant response rating): 95%
- pest or weed control at 500 g/ha (morningglory; post-emergence, Postemergence, 500 g ai/ha, 0 to 100 scale, 0 no effect, 100 complete control, read-out: Morningglory plant response rating): 80%
- pest or weed control at 2000 g/ha (morningglory; post-emergence, Postemergence, 2000 g ai/ha, 0 to 100 scale, 0 no effect, 100 complete control, read-out: Plant response rating, Morningglory): 95%
- pest or weed control at 2000 g/ha (morningglory; pre-emergence, Preemergence, 2000 g ai/ha, visual rating, 0 to 100 scale (0 no effect, 100 complete control), read-out: Morningglory plant response rating): 100%
- pest or weed control at 500 g/ha (morningglory; pre-emergence, preemergence, 500 g ai/ha, visual injury, 0 to 100 scale (0 no effect, 100 complete control), read-out: Morningglory plant response rating): 75%
- pest or weed control at 125 g/ha (barnyardgrass [2]; post-emergence, postemergence, 125 g ai/ha, visual rating, scale 0 (no effect) to 100 (complete control), read-out: Barnyardgrass plant response rating): 10%
- pest or weed control at 500 g/ha (barnyardgrass [2]; post-emergence, postemergence, 500 g ai/ha, visual rating, scale 0 (no effect) to 100 (complete control), read-out: Barnyardgrass plant response rating): 20%
- pest or weed control at 125 g/ha (barnyardgrass [2]; pre-emergence, 125 g ai/ha, 0 = no effect, 100 = complete control, read-out: Barnyardgrass plant response rating (0 to 100 scale)): 90%
- pest or weed control at 500 g/ha (barnyardgrass [2]; pre-emergence, 500 g ai/ha, visual rating, 0 = no effect, 100 = complete control, read-out: Plant response rating, Barnyardgrass): 100%
- pest or weed control at 125 g/ha (large crabgrass; post-emergence, postemergence, 125 g ai/ha, visual rating, scale 0 (no effect) to 100 (complete control), read-out: Crabgrass, Large plant response rating): 10%
- pest or weed control at 500 g/ha (large crabgrass; post-emergence, postemergence, 500 g ai/ha, visual rating, scale 0 (no effect) to 100 (complete control), read-out: Crabgrass, Large plant response rating): 20%
- pest or weed control at 125 g/ha (large crabgrass; pre-emergence, 125 g ai/ha, 0 = no effect, 100 = complete control, read-out: Crabgrass, Large plant response rating (0 to 100 scale)): 90%
- pest or weed control at 500 g/ha (large crabgrass; pre-emergence, 500 g ai/ha, visual rating, 0 = no effect, 100 = complete control, read-out: Plant response rating, Crabgrass, Large): 100%
- pest or weed control at 62 g/ha (woolly cupgrass; Eriochloa villosa, pre-emergence, 312 h, 62 g ai/ha, preemergence, scale 0 to 100, read-out: Plant response rating, Cupgrass, Woolly): 20%
- pest or weed control at 125 g/ha (woolly cupgrass; Eriochloa villosa, pre-emergence, 312 h, 125 g ai/ha, scale 0 (no effect) to 100 (complete control), visual, 12 to 14 days, read-out: Plant response rating, Cupgrass, Woolly): 100%
- pest or weed control at 250 g/ha (woolly cupgrass; Eriochloa villosa, pre-emergence, 312 h, 250 g ai/ha, scale 0-100, read-out: Plant response rating, Cupgrass, Woolly): 100%
- pest or weed control at 500 g/ha (woolly cupgrass; Eriochloa villosa, pre-emergence, 312 h, 500 g ai/ha, scale 0 to 100 (0 no effect, 100 complete control), visual, 12 to 14 days, read-out: Plant response rating, Cupgrass, Woolly): 100%
- pest or weed control at 62 g/ha (johnsongrass; Sorghum halepense, pre-emergence, 62 g ai/ha, preemergence, scale 0 to 100, read-out: Plant response rating, Johnsongrass): 85%
- pest or weed control at 125 g/ha (johnsongrass; Sorghum halepense, pre-emergence, 125 g ai/ha, scale 0 (no effect) to 100 (complete control), visual, 12 to 14 days, read-out: Plant response rating, Johnsongrass): 100%
- pest or weed control at 250 g/ha (johnsongrass; Sorghum halepense, pre-emergence, 250 g ai/ha, scale 0-100, read-out: Plant response rating, Johnsongrass): 100%
- pest or weed control at 500 g/ha (johnsongrass; Sorghum halepense, pre-emergence, 500 g ai/ha, scale 0 to 100 (0 no effect, 100 complete control), visual, 12 to 14 days, read-out: Plant response rating, Johnsongrass): 100%
- pest or weed control at 62 g/ha (lambsquarters; Chenopodium album, pre-emergence, 62 g ai/ha, preemergence, scale 0 to 100, read-out: Plant response rating, Lambsquarters): 100%
- pest or weed control at 125 g/ha (lambsquarters; Chenopodium album, pre-emergence, 125 g ai/ha, scale 0 (no effect) to 100 (complete control), visual, 12 to 14 days, read-out: Plant response rating, Lambsquarters): 100%
- pest or weed control at 250 g/ha (lambsquarters; Chenopodium album, pre-emergence, 250 g ai/ha, scale 0-100, read-out: Plant response rating, Lambsquarters): 100%
- pest or weed control at 500 g/ha (lambsquarters; Chenopodium album, pre-emergence, 500 g ai/ha, scale 0 to 100 (0 no effect, 100 complete control), visual, 12 to 14 days, read-out: Plant response rating, Lambsquarters): 100%
